What all share (conditions): in vivo
In data set [1] the test system is Rattus norvegicus. The experiment in a line: Accumulation in blood was evaluated by distribution of radioactivity at 0.5 hr after intravenous administration of 4-14C radiolabeled Cholesteryl Oleate to Rats. Type of data set: ADME, organism-based.
Data set [2] concerns Rattus norvegicus. Nature of the data set: Accumulation in liver was evaluated by distribution of radioactivity at 0.5 hr after intravenous administration of oleate 1-14C radiolabeled Cholesteryl Oleate to Rats. Type of data set: ADME, organism-based.
Data set [3] concerns Rattus norvegicus. Nature of the data set: Accumulation in thyroid was evaluated by distribution of radioactivity at 0.5 hr after intravenous administration of 4-14C radiolabeled Cholesteryl Oleate to Rats. The class given is ADME, organism-based, Thyroid gland.
For data set [4], the system named is Rattus norvegicus. Nature of the data set: Accumulation in adrenal cortex was evaluated by distribution of radioactivity at 0.5 hr after intravenous administration of 4-14C radiolabeled Cholesteryl Oleate to Rats. The class given is ADME, organism-based.
Data set [5] has as its system Rattus norvegicus. Nature of the data set: Accumulation in blood was evaluated by distribution of radioactivity at 0.5 hr after intravenous administration of oleate 1-14C radiolabeled Cholesteryl Oleate to Rats. The class given is ADME, organism-based.
Data set [6] concerns Rattus norvegicus. Nature of the data set: Accumulation in ovary was evaluated by distribution of radioactivity at 0.5 hr after intravenous administration of 4-14C radiolabeled Cholesteryl Oleate to Rats. Type of data set: ADME, organism-based, Female gonad.
In data set [7] the test system is Rattus norvegicus. The experiment in a line: Accumulation in thyroid was evaluated by distribution of radioactivity at 0.5 hr after intravenous administration of oleate 1-14C radiolabeled Cholesteryl Oleate to Rats. Type of data set: ADME, organism-based, Thyroid gland.
Data set [8] concerns Rattus norvegicus. The experiment in a line: Accumulation in liver was evaluated by distribution of radioactivity at 0.5 hr after intravenous administration of 4-14C radiolabeled Cholesteryl Oleate to Rats. The class given is ADME, organism-based.
In data set [9] the test system is Rattus norvegicus. The experiment in a line: Accumulation in ovary was evaluated by distribution of radioactivity at 0.5 hr after intravenous administration of oleate 1-14C radiolabeled Cholesteryl Oleate to Rats. Type of data set: ADME, organism-based, Female gonad.
The test system of data set [10] is Rattus norvegicus. The experiment in a line: Accumulation in adrenal cortex was evaluated by distribution of radioactivity at 0.5 h after intravenous administration of oleate 1-14C radiolabeled Cholesteryl Oleate to Rats. The class given is ADME, organism-based.
For data set [11], the system named is Rattus norvegicus. The experiment in a line: Accumulation in thyroid was evaluated by distribution of radioactivity at 24 hr after intravenous administration of radioiodinated cholesteryl 2,3,5-tri[125I]iodobenzoate to Rats. The class given is ADME, organism-based, Thyroid gland.
Data set [12] relates to Rattus norvegicus. Nature of the data set: Accumulation in blood was evaluated by distribution of radioactivity at 24 hr after intravenous administration of radioiodinated cholesteryl 2,3,5-tri[125I]iodobenzoate to Rats. The class given is ADME, organism-based.
Data set [13] concerns Rattus norvegicus. Nature of the data set: Accumulation in thyroid was evaluated by distribution of radioactivity at 0.5 hr after intravenous administration of radioiodinated cholesteryl 2,3,5-tri[125I]iodobenzoate to Rats. The class given is ADME, organism-based, Thyroid gland.
In data set [14] the test system is Rattus norvegicus. Nature of the data set: Accumulation in spleen was evaluated by distribution of radioactivity at 24 h after intravenous administration of radioiodinated cholesteryl 2,3,5-tri[125I]iodobenzoate to Rats. The class given is ADME, organism-based.
Data set [15] concerns Rattus norvegicus. Nature of the data set: Accumulation in blood was evaluated by distribution of radioactivity at 0.5 hr after intravenous administration of radioiodinated cholesteryl 2,3,5-tri[125I]iodobenzoate to Rats. The class given is ADME, organism-based.
The test system of data set [16] is Rattus norvegicus. The experiment in a line: Accumulation in ovary was evaluated by distribution of radioactivity at 24 hr after intravenous administration of radioiodinated cholesteryl 2,3,5-tri[125I]iodobenzoate to Rats. Type of data set: ADME, organism-based, Female gonad.
The test system of data set [17] is Rattus norvegicus. The experiment in a line: Accumulation in liver was evaluated by distribution of radioactivity at 0.5 hr after intravenous administration of radioiodinated cholesteryl 2,3,5-tri[125I]iodobenzoate to Rats. The class given is ADME, organism-based.
Data set [18] concerns Rattus norvegicus. Nature of the data set: Accumulation in lung was evaluated by distribution of radioactivity at 24 hr after intravenous administration of radioiodinated cholesteryl 2,3,5-tri[125I]iodobenzoate to Rats. The class given is ADME, organism-based.
Data set [19] concerns Rattus norvegicus. The experiment in a line: Accumulation in lung was evaluated by distribution of radioactivity at 0.5 hr after intravenous administration of radioiodinated cholesteryl 2,3,5-tri[125I]iodobenzoate to Rats. Type of data set: ADME, organism-based.
Data set [20] concerns Rattus norvegicus. Nature of the data set: Accumulation in liver was evaluated by distribution of radioactivity at 24 hr after intravenous administration of radioiodinated cholesteryl 2,3,5-tri[125I]iodobenzoate to Rats. Type of data set: ADME, organism-based.
The test system of data set [21] is Rattus norvegicus. The experiment in a line: Accumulation in adrenal cortex was evaluated by distribution of radioactivity at 0.5 hr after intravenous administration of radioiodinated cholesteryl 2,3,5-tri[125I]iodobenzoate to Rats. The class given is ADME, organism-based.
Data set [22] has as its system Rattus norvegicus. Nature of the data set: Accumulation in adrenal cortex was evaluated by distribution of radioactivity at 24 hr after intravenous administration of radioiodinated cholesteryl 2,3,5-tri[125I]iodobenzoate to Rats. Type of data set: ADME, organism-based.
Data set [23] relates to Rattus norvegicus. The experiment in a line: Accumulation in spleen was evaluated by distribution of radioactivity at 0.5 hr after intravenous administration of radioiodinated cholesteryl 2,3,5-tri[125I]iodobenzoate to Rats. Type of data set: ADME, organism-based.
The subject of data set [24] is Rattus norvegicus. The experiment in a line: Accumulation in ovary was evaluated by distribution of radioactivity at 0.5 hr after intravenous administration of radioiodinated cholesteryl 2,3,5-tri[125I]iodobenzoate to Rats. The class given is ADME, organism-based, Female gonad.

For `CCCCCCCC/C=C\CCCCCCCC(=O)OC1CCC2(C)C(=CCC3C2CCC2(C)C(C(C)CCCC(C)C)CCC32)C1` (centres undefined), the Dose/g of tissue is reported as 5.78% in the data set on Rattus norvegicus [1]; 1.236% in the data set on Rattus norvegicus [2]; 0.446% in the data set with Rattus norvegicus [3]; 3.85% with Rattus norvegicus [4]; 5.196% in the data set with Rattus norvegicus [5]; 2.815% in the data set with Rattus norvegicus [6]. The Dose/g of tissue amounted to 0.344% with Rattus norvegicus [7], 1.569% in the data set on Rattus norvegicus [8], 2.088% in the data set on Rattus norvegicus [9] and 2.448% in the data set on Rattus norvegicus [10].

Turning to `CC(C)CCCC(C)C1CCC2C3CC=C4CC(OC(=O)c5cc(I)cc(I)c5I)CCC4(C)C3CCC12C` (centres undefined), the Dose/g of tissue came to 2.63% with Rattus norvegicus [11]; 0.568% in the data set with Rattus norvegicus [12]; 0.47% in the data set on Rattus norvegicus [13]; 1.68% in the data set on Rattus norvegicus [14]; 5.46% with Rattus norvegicus [15]; 16.19% in the data set on Rattus norvegicus [16]. For the same compound, the Dose/g of tissue is recorded as 2.726% with Rattus norvegicus [17]; 0.703% in the data set with Rattus norvegicus [18]; 1.49% in the data set with Rattus norvegicus [19]; 5.106% in the data set on Rattus norvegicus [20]; 5.455% with Rattus norvegicus [21]; 9.032% in the data set with Rattus norvegicus [22]. The values for the Dose/g of tissue in the data set on Rattus norvegicus [23] and with Rattus norvegicus [24] were 0.57% and 6.148%, respectively.

These data come from ChEMBL document CHEMBL1121716, “Potential organ- or tumor-imaging agents. 21. Acyl-labeled esters of cholesterol” (J Med Chem, 1981).
